Consider 2 compounds from US6372797B1, “Treatment of menstrual function” (Knoll Pharmaceutical Company, priority 1999, dated 2002).

Experiment [1] deals with [3H]Noradenaline reuptake. Briefly: in vitro [3H]noradrenaline reuptake inhibition in rat brain tissue. The experiment is classed as biochemical. To be noted: means of ≧ 3 separate determinations.
The next experiment addresses [3H]Dopamine reuptake. Briefly: in vitro [3H]dopamine reuptake inhibition in rat brain tissue. It counts as biochemical. The conditions noted are these: means of ≧ 3 separate determinations.

As for `CC(NC(C)(C)C)C(=O)c1cccc(Cl)c1` (stereo not shown) [Bupropion], the values for the Ki in experiment [1] and in experiment [3H]Dopamine reuptake were 2590 nM and 409 nM, respectively.
Consider `COc1ccc(C(CN(C)C)C2(O)CCCCC2)cc1` (stereo not shown) [Venlafaxine], for which the Ki (in general, the equilibrium dissociation constant of an inhibitor or competing ligand from its target) in experiment [1] worked out at 196 nM; in experiment [3H]Dopamine reuptake, 2590 nM.
